Experimental data reported in US8748410B2, “Methods of treating aneurysm” (Wisconsin Alumni Research Foundation, priority 2010, dated 2014).

What was measured:
[1] = tested on: pre-existing (induced) AAAs; assay: pre-existing (induced) AAAs in mice, delayed treatment; assay type: in vivo; settings: weekly injection started 7 days after aneurysm induction, over 5 weeks vs. saline control
Protocol: In addition, the inventors have extended their studies to cover the other major subclass of bisphosphonates (i.e., non-nitrogenous bisphosphonates) by studying the effect of etidronate (7.5 mg/kg i.v.) on aneurysm formation over 7 days (see FIG. 3B). The dose of etidronate was equivalent to FDA approved dose for Paget's disease (5-10 mg/kg). […] The bisphosphonate treatment corresponding to the data in FIG. 3A was started 1 week post surgery. The bisphosphonate treatments resulting in the data shown in FIGS. 4 (pamidronate) and 5 (etidronate) differed from the previous treatment in that they included weekly bisphosphonate administration immediately after surgery through 6 weeks post surgery.

[2] = tested on: calcium chloride induced AAA (CaCl2 AAA); assay: calcium chloride induced AAA in mouse, aneurysm formation; assay type: in vivo; settings: mice, 1.25 mg/kg i.v., after 7 days
From the text: FIG. 2 illustrates the effect of OLCs inhibition on mouse AAA. Representative pictures of CaCl2 AAA with intravenous (“i.v.”) saline or bisphosphonate injection. Fold increase of the maximum size 7 days after the treatment was shown. n=3, P<0.05. Initially, the inventors identified robust calcification in human AAA samples. The inventors have also identified the existence of OLCs in the medial layer of aneurismal aorta, which were barely detected in age matched aortic tissues from autopsy and stenotic disease both by tartrate-resistant acid phosphatase (“TRAP”) staining, a conventional staining for osteoclast, and immunohistochemistry for osteoclast marker, TRAP (see FIG. 1). The inventors also have identified calcification and OLCs in experimental calcium chloride induced AAA (CaCl2 AAA) in mouse. […] (see FIG. 2) The dose of pamidronate was equivalent to FDA approved dose of pamidronate for osteolytic bone lesions (90 mg/body).

For `NCCC(O)(P(=O)(O)O)P(=O)(O)O` [pamidronate], the “further growth of the aneurysm” value [1] was “immediately halted further growth of the aneurysm” and the “inhibition of aneurysm formation” value [2] was “apparently complete inhibition of aneurysm formation”.
